Reference: ChEMBL document CHEMBL1201862, “PubChem BioAssay data set” (2004)
The source made the active and inactive calls.

Columns and labels:
[1] = target: T1, Replicative DNA helicase DnaB (Mycobacterium tuberculosis, UniProt P9WMR3); assay: DnaB intein splicing inhibitors, dose response, biochemical, cell-free fluorescence (AID 449749); type: functional
T1 sequence (P9WMR3 whole entry): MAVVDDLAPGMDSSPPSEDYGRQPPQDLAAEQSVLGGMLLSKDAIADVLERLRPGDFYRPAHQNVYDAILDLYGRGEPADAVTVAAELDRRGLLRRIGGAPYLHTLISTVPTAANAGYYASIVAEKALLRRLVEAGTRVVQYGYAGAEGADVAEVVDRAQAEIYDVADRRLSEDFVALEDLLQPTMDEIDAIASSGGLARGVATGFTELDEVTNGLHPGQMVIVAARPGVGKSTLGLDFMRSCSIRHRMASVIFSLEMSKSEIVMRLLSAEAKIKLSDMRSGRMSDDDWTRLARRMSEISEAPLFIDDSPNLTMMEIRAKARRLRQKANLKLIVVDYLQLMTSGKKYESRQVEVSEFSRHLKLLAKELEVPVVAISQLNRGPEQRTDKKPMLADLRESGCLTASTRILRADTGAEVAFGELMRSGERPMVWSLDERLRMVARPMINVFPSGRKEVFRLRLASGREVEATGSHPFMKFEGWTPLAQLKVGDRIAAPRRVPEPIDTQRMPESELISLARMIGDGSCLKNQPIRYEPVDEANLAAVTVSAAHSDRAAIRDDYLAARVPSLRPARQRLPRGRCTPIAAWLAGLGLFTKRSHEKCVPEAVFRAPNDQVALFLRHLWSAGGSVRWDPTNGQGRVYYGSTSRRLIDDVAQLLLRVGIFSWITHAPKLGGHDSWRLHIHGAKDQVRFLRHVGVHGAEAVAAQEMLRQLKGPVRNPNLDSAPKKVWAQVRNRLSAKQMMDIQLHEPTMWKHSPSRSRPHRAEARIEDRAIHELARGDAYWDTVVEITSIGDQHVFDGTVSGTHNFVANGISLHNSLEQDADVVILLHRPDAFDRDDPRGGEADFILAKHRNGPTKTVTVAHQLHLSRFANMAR

[2] = cytotoxicity in HPDE-C7 cells, cell-based, fluorescence, HTS (AID 430); type: functional; conditions: Homo sapiens
[3] = target: Beta-2 adrenergic receptor (Homo sapiens, UniProt P07550); assay: beta2AR agonists driving receptor internalization, dose response, cell-based, FAP fluorogen, flow cytometry, cherry pick 1 (AID 588763); type: functional
Sequence of Beta-2 adrenergic receptor (P07550 whole entry): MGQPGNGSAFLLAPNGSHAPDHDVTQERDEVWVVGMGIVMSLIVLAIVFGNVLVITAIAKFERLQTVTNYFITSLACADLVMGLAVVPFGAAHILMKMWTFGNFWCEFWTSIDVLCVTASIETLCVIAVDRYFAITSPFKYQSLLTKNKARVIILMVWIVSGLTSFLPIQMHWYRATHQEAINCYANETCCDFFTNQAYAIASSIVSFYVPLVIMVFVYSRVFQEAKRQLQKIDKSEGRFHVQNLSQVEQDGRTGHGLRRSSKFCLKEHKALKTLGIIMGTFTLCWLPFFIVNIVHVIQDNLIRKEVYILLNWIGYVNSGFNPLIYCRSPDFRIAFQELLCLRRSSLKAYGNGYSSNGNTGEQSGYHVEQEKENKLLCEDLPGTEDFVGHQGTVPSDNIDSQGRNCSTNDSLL

[4] = cytotoxicity in MIN6 insulinoma cells, dose response, cytotoxicity control, cell-based, mouse insulinoma (AID 2122); type: functional;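 also: confirmatory high-throughput counterscreen run to flag cytotoxic compounds; mouse MIN-6 beta cells carrying an insulin promoter eGFP reporter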
[5] = insulin promoter down-regulators in MIN6 cells, imaging, high-content screening, mouse beta cells (AID 1628); type: functional
[6] = nonselective inhibitors of cellular cAMP signaling, dose response, counter-screen for MC4R biased antagonist project, cell-based, TR-FRET cAMP detection (AID 602305); type: functional;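 also: U2OS cells stimulated with forskolin near its EC80 as the cAMP inducer; potency is for inhibition of forskolin-stimulated cAMP signaling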
[7] = cytotoxicity in KRAS-transformed pancreatic duct cells, primary screen, cell-based, fluorescence, HTS (AID 431); type: functional; conditions: Homo sapiens;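 also: cell line used: HPDE-C7K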
[8] = cytotoxicity toward NIH3T3 fibroblasts, dose response, counter-screen, cell-based, ATP luminescence, mouse fibroblasts (AID 2010); type: functional;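 also: cells exposed to compound for about 90 hours before reading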
Beta-galactosidase = Beta-galactosidase (Escherichia coli, UniProt Q8VNN2); assay: beta-galactosidase enzyme inhibitors and activators, dose response, artefact control for CCR6 antagonist project, biochemical, E. coli enzyme, set 3 (AID 504712); type: functional
Sequence of Beta-galactosidase (Q8VNN2 whole entry): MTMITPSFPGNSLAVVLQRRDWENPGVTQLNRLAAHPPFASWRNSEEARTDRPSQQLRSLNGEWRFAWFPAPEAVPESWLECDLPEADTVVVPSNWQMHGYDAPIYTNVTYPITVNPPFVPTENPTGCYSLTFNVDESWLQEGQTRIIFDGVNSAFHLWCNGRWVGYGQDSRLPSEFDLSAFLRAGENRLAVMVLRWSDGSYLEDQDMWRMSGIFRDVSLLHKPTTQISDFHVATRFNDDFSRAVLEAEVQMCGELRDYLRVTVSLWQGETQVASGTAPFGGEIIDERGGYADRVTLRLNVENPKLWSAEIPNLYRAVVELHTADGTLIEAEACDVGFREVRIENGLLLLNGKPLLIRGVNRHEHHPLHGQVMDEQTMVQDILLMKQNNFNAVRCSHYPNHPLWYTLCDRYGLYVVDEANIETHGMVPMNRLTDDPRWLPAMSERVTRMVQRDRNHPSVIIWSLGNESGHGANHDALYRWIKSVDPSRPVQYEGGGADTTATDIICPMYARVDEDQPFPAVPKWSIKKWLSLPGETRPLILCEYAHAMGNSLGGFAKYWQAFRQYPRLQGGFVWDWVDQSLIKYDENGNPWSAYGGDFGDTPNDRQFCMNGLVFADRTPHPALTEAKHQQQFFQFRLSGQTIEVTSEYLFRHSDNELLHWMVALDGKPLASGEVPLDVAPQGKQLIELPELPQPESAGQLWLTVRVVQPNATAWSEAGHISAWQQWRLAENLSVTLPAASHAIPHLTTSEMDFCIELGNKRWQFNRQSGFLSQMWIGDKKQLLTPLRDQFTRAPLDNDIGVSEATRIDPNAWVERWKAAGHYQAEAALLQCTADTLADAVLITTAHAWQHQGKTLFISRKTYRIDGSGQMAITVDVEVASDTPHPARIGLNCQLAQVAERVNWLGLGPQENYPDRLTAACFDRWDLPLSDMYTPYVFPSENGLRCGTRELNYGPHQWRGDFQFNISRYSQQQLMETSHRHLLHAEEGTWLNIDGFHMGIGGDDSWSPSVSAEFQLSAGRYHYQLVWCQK

Protein RecA = target: T2, Protein RecA (Mycobacterium tuberculosis, UniProt P9WHJ3); assay: Fluorescence Cell-Free Homogeneous Dose Retest to Identify Inhibitors of RecA-Intein Splicing Activity. [Related pubchem assays (depositor defined):AID2097, AID2223, AID489010, AID492950]; type: functional
T2 sequence (P9WHJ3 whole entry): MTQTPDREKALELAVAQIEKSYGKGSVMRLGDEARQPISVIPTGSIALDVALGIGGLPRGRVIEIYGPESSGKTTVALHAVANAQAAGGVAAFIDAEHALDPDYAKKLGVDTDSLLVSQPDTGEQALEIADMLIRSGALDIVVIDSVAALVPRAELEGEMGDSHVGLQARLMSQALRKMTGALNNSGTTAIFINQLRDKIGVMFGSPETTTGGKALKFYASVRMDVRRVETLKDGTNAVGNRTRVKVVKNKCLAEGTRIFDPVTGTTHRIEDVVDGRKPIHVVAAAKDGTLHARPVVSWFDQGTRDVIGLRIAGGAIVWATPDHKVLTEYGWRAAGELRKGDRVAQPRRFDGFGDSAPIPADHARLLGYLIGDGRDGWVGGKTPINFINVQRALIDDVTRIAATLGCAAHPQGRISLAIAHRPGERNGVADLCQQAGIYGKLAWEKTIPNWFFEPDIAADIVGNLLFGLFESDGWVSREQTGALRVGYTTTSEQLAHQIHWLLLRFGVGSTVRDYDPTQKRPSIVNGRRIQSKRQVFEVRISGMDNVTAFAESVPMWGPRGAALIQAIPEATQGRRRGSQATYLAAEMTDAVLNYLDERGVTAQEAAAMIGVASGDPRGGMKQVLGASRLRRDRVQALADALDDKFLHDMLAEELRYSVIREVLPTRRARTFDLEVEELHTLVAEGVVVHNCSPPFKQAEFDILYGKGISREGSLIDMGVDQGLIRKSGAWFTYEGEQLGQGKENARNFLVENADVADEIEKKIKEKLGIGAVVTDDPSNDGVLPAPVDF

[9] = HepG2 cell cytotoxicity, dose response, cytotoxicity control for Shn3 inhibitor project, CellTiter-Glo, cherry-picked (AID 624134); type: functional, cell-based
[10] = Shn3 3'UTR reporter inhibitors, dose response, cell-based, Clone20 osteoblasts, firefly luciferase, cherry-picked (AID 624132); type: functional;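 also: firefly luciferase luminescence from reporter carrying the Shn3 3'UTR in osteoblasts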
Melanocortin receptor 4 = Melanocortin receptor 4 (Homo sapiens, UniProt P32245); assay: MC4R antagonist potency on cAMP, dose response, cell-based, TR-FRET, biased antagonists (AID 602298); type: functional;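 also: antagonist potency against agonist-stimulated cAMP production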
Sequence of Melanocortin receptor 4 (P32245 whole entry): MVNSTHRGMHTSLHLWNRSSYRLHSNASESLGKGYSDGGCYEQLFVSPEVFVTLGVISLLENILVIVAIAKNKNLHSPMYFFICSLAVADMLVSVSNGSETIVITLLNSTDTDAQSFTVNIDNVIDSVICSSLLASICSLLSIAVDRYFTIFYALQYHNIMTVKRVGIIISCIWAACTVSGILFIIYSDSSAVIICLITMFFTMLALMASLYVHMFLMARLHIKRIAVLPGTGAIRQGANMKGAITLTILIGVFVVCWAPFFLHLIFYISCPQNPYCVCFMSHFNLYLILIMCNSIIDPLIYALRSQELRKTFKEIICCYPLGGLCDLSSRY

[11] = target: C-C chemokine receptor type 6 (Homo sapiens, UniProt P51684); assay: CCR6 receptor antagonists, dose response, cell-based, luminescent beta-arrestin readout (AID 504728); type: functional
Sequence of C-C chemokine receptor type 6 (P51684 whole entry): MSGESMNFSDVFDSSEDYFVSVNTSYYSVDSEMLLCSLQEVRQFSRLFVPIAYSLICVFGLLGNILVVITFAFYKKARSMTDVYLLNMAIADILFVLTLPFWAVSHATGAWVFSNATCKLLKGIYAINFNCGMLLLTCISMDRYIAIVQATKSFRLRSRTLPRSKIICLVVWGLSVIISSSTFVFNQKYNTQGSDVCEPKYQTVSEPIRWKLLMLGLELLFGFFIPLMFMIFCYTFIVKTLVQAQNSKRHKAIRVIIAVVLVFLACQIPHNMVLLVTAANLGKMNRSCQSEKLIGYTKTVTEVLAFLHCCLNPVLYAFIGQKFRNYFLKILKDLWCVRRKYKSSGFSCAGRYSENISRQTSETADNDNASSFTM

[12] = inhibitors of intracellular T. cruzi replication, confirmation, NIH3T3 host cells, beta-gal luminescence (AID 2044); type: functional, cell-based;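 also: intracellular parasites grown in NIH/3T3 mouse fibroblasts as host cells; luminescent beta-galactosidase reporter signal from transgenic T. cruzi replicating inside host cells; inhibitors lower the luminescence signal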
[13] = target: Heat shock protein HSP 90-alpha (Homo sapiens, UniProt P07900); type: functional, organism-based
[14] = control 3'UTR Renilla luciferase suppression, dose response, counter-screen for Shn3 inhibitor project, cell-based, Clone20-Shn3RL, cherry-picked (AID 624133); type: functional

CC(C)(C)c1cc(C(c2cccnc2)N2CCN(CCO)CC2)cc(C(C)(C)C)c1O (configuration not stated)
AC50 [1]: 20 µM (active) | EC50 [2]: 3.77 µM (active) | EC50 [3]: 7.35 µM (inactive) | IC50 [4]: 3.96 µM (active) | IC50 [5]: 4.68 µM (active) | IC50 [6]: > 64.6 µM (inactive) | EC50 [7]: 3.45 µM (active) | EC50 [8]: 4.59 µM (active) | IC50 (Beta-galactosidase): > 66.6 µM (inactive) | EC50 (Protein RecA): 17.3 µM (active) | AC50 [9]: 25.2 µM (active) | AC50 [10]: 1.7 µM (active) | IC50 (Melanocortin receptor 4): 25.1 µM (inactive) | IC50 [11]: 35.9 µM (inactive) | EC50 [12]: 0.488 µM (active) | AC50 [13]: 24 µM (active) | AC50 [14]: 7.04 µM (active)
